Assay results from article PMC6920566 (Journal of molecular biology, 2019).

System: MDA-MB-231 cells
Assay: Fluorescence microscopy of A488-pHLIP cellular interaction
Assay type: cell-based, human

H2N-GCEQNPIYWARYADWLF-TTPLLLLDLALLVDADEGTG-CONH2 [A488-pHLIP]
A488 fluorescence of cells (microscopy) (pH 5.0, absence of divalent cations): large increase in A488 fluorescence intensity
A488 fluorescence of cells (microscopy) (pH 7.4, 1.8 mM Ca2+): significant increase in A488 fluorescence intensity
A488 fluorescence of cells (microscopy) (pH 7.4, absence of divalent cations, washed before imaging): No significant fluorescence
